Laboratory results reported in a compilation of properties of binary mixtures (doi:10.1016/j.molliq.2018.08.031).

Experiment: xn = mol fraction of the nth substance listed
Settings: 100 kPa

COCCOCCOC + CCCC[n+]1ccn(C)c1.F[P-](F)(F)(F)(F)F
Settings | viscosity [mPa·s]
283.15 K, x2 = 0.0571 | 2.381
283.15 K, x2 = 0.1013 | 3.238
283.15 K, x2 = 0.2923 | 11.69
283.15 K, x2 = 0.39 | 19.81
283.15 K, x2 = 0.492 | 37.5
283.15 K, x2 = 0.6827 | 114.6
283.15 K, x2 = 0.9711 | 618
293.15 K, x2 = 0.057 | 1.99
293.15 K, x2 = 0.1982 | 4.59
293.15 K, x2 = 0.2963 | 7.91
293.15 K, x2 = 0.3913 | 14.79
293.15 K, x2 = 0.5865 | 39.52
293.15 K, x2 = 0.6814 | 66.5
293.15 K, x2 = 0.7968 | 124.3
293.15 K, x2 = 0.892 | 209.7
303.15 K, x2 = 0.0995 | 1.623
303.15 K, x2 = 0.1973 | 2.826
303.15 K, x2 = 0.2994 | 5.146
303.15 K, x2 = 0.4896 | 14.66
303.15 K, x2 = 0.5893 | 24.8
303.15 K, x2 = 0.6884 | 40.83
303.15 K, x2 = 0.8923 | 113.3
303.15 K, x2 = 0.9596 | 158.7
313.15 K, x2 = 0.057 | 0.953
313.15 K, x2 = 0.0943 | 0.744
313.15 K, x2 = 0.1995 | 0.789
313.15 K, x2 = 0.2856 | 1.631
313.15 K, x2 = 0.4877 | 7.46
313.15 K, x2 = 0.6781 | 21.08
313.15 K, x2 = 0.7994 | 38.25
313.15 K, x2 = 0.8941 | 61
313.15 K, x2 = 0.9553 | 83.2
